What is called IC50 is the midpoint of a concentration-inhibition curve.

These results are taken from ChEMBL document CHEMBL4342417, “Design, synthesis and evaluation of novel phenothiazine derivatives as inhibitors of breast cancer stem cells” (Eur J Med Chem, 2019).

In data set [1] the test system is SK-BR-3. Briefly: Antiproliferative activity against human SKBR3 cells assessed as reduction in cell viability incubated for 2 days by MTT assay. In kind it is functional, cell-based. The settings on record: SK-BR-3, 48 h.
Data set [2] deals with MDA-MB-231. Nature of the data set: Antiproliferative activity against human MDA-MB-231 cells assessed as reduction in cell viability incubated for 2 days by MTT assay. The following applies: MDA-MB-231, 48 h. It is filed as functional, cell-based. For orientation: Tetrazolium assays rely on reduction of a dye to a coloured formazan, in cell work by metabolically active cells.

Data set [3] has as its system MDA-MB-231. Nature of the data set: Potency index, ratio of IC50 of TFP to IC50 of compound for antiproliferative activity against human MDA-MB-231 cells assessed as reduction in cell viability incubated for 2 days by MTT assay. In kind it is functional.
Data set [4] concerns SUM-159-PT. Nature of the data set: Antiproliferative activity against human SUM159 cells assessed as reduction in cell viability incubated for 2 days by MTT assay. In kind it is functional, cell-based. The following applies: 48 h.
Data set [5] concerns MCF7. Briefly: Potency index, ratio of IC50 of TFP to IC50 of compound for antiproliferative activity against human MCF7 cells assessed as reduction in cell viability incubated for 2 days by MTT assay. In kind it is functional.
The subject of data set [6] is SUM-159-PT. Briefly: Potency index, ratio of IC50 of TFP to IC50 of compound for antiproliferative activity against human SUM159 cells assessed as reduction in cell viability incubated for 2 days by MTT assay. It is filed as functional.
Data set [7] deals with MCF7. Nature of the data set: Antiproliferative activity against human MCF7 cells assessed as reduction in cell viability incubated for 2 days by MTT assay. It is filed as functional, cell-based. The following applies: MCF7, 48 h.
The test system of data set [8] is SK-BR-3. Briefly: Potency index, ratio of IC50 of TFP to IC50 of compound for antiproliferative activity against human SKBR3 cells assessed as reduction in cell viability incubated for 2 days by MTT assay. It is filed as functional.
For data set [9], the system named is KG-1a. Nature of the data set: Antiproliferative activity against human KG1a cells assessed as reduction in cell viability incubated for 2 days by MTT assay. The following applies: 48 h. In kind it is functional, cell-based.
Data set [10] can be described thus: Toxicity in zebra fish assessed as survival rate at 250 uM observed for 24 hrs. The arrangement: species or system Danio rerio. The following applies: zebrafish.

Consider `O=C(CCC(=O)N1CCN(CCCN2c3ccccc3Sc3ccc(C(F)(F)F)cc32)CC1)OCCOCCOc1no[n+]([O-])c1S(=O)(=O)c1ccccc1`, for which the IC50 stood at 10.1 µM in data set [1], 3.12 µM in [2], 3.36 µM in data set [4] and 3.31 µM in data set [7]. Moreover, the “Ratio IC50” value in [3] is reported as 7; in data set [5] it was 3; in data set [6] it was 4 - 9.
As to `O=C(CCC(=O)N1CCN(CCCN2c3ccccc3Sc3ccc(C(F)(F)F)cc32)CC1)NCCOc1no[n+]([O-])c1S(=O)(=O)c1ccccc1`, the IC50 in data set [1] came to 1.77 µM; in data set [2], 6.04 µM; in data set [4], 1.98 µM; in data set [7] it was 6.96 µM. Further, the entries for the “Ratio IC50” value in [8], in data set [3] and in data set [6] were 4 - 9, 4 - 15 and 9, respectively.
As to `OCCN(CCO)CCCN1c2ccccc2Sc2ccc(C(F)(F)F)cc21`, the IC50 in data set [1] came out at 43.2 µM; in data set [2], 6.09 µM; in [4], 46 µM; in data set [7] it was 33.6 µM.
As to `COCCN(CCCN1c2ccccc2Sc2ccc(SC)cc21)CCOC`, the IC50 in data set [1] came out at 31.9 µM; in data set [2] it was 40.5 µM; in [4] it was 18.3 µM; in data set [7] it was 6.09 µM.
`O=C1CC(c2ccc(O)cc2)Oc2cc(O)c(CN3CCN(CCCN4c5ccccc5Sc5ccccc54)CC3)c(O)c21` (stereo not given): the IC50 in data set [1], in data set [2], in data set [4] and in [7] was over 50 µM throughout.
With `O=C1CC(c2ccccc2)Oc2cc(O)c(CN3CCN(CCCN4c5ccccc5Sc5ccc(C(F)(F)F)cc54)CC3)c(O)c21` (stereo not given), the IC50 in data set [1], in [2], in data set [4] and in data set [7] was over 50 µM throughout.
As to `CSc1ccc2c(c1)N(CCCN1CCN(Cc3c(O)cc4c(c3O)C(=O)CC(c3ccc(O)cc3)O4)CC1)c1ccccc1S2` (stereo not given), the IC50 is over 50 µM in data set [1], over 50 µM in [2], 32.2 µM in data set [4] and over 50 µM in data set [7].
`O=C1CC(c2ccccc2)Oc2cc(O)c(CN3CCN(CCCN4c5ccccc5Sc5ccccc54)CC3)c(O)c21` (stereo not given): the IC50 in data set [1], in data set [2], in [4] and in data set [7] was over 50 µM each time.
`COCCN(CCCN1c2ccccc2Sc2ccccc21)CCOC`: the IC50 in data set [1] is over 50 µM; in [2], 45.1 µM; in [4], 35.3 µM; in data set [7], 29.8 µM.
For the molecule `OCCN(CCO)CCCN1c2ccccc2Sc2ccccc21`, the IC50 in [1], in data set [2], in data set [4] and in data set [7] was over 50 µM in each case.
Turning to `CSc1ccc2c(c1)N(CCCN1CCN(C(=O)CCC(=O)OCCCCOc3no[n+]([O-])c3S(=O)(=O)c3ccccc3)CC1)c1ccccc1S2`, the IC50 was found to be 9.72 µM in data set [1]; 1.14 µM in data set [9]; 3.62 µM in data set [2]; 1.14 µM in [4]; 0.84 µM in data set [7]. The “Ratio IC50” value is given as 6 in data set [3], 4 - 13 in data set [5] and 6 - 15 in data set [6]. Further, in [10], the survival at 24 h, 250 µM stood at 25.8%.
Turning to `CSc1ccc2c(c1)N(CCCN1CCN(Cc3c(O)cc4c(c3O)C(=O)CC(c3ccccc3)O4)CC1)c1ccccc1S2` (stereo not given), the IC50 in data set [1], in [2], in [4] and in [7] was over 50 µM in each case.
In the case of `O=C(CCC(=O)N1CCN(CCCN2c3ccccc3Sc3ccccc32)CC1)OCC#CCOc1no[n+]([O-])c1S(=O)(=O)c1ccccc1`, the IC50 in [1] came to 8.89 µM; in [2], 6.4 µM; in data set [4], 2.85 µM; in [7], 1.55 µM. The “Ratio IC50” value in [5] worked out at 7.
In the case of `CSc1ccc2c(c1)N(CCC1CCCCN1C)c1ccccc1S2` (stereo not given) [THIORIDAZINE], the IC50 in data set [1] stood at 18.2 µM; in [9], 6.01 µM; in data set [2], 14.2 µM; in data set [4], 14.5 µM.
For `O=C(CCC(=O)N1CCN(CCCN2c3ccccc3Sc3ccccc32)CC1)NCCOc1no[n+]([O-])c1S(=O)(=O)c1ccccc1`, the IC50 in data set [1] was determined as 4.01 µM; in data set [2], 1.43 µM; in [4] it was 4.17 µM; in [7] it was 5.58 µM. For the same molecule, the “Ratio IC50” value in data set [8] was 4 - 9; in data set [3], 4 - 15; in data set [6] it was 4.
For `O=C(CCC(=O)N1CCN(CCCN2c3ccccc3Sc3ccccc32)CC1)OCCOCCOc1no[n+]([O-])c1S(=O)(=O)c1ccccc1`, the IC50 was 3.13 µM in data set [1], 14.8 µM in [2], 1.95 µM in [4] and 12.2 µM in data set [7]. Further, the “Ratio IC50” value is given as 4 in [8] and 4 - 9 in data set [6].
As for `CSc1ccc2c(c1)N(CCCN1CCN(C(=O)CCC(=O)OCCOCCOc3no[n+]([O-])c3S(=O)(=O)c3ccccc3)CC1)c1ccccc1S2`, the half-inhibitory concentration (IC50) is 3.91 µM in data set [1], 3.06 µM in [2], 4.31 µM in [4] and 11.9 µM in data set [7]. In addition, the “Ratio IC50” value in data set [8] was 4; in data set [3], 7; in data set [6], 4 - 9.
Take `O=C(CCC(=O)N1CCN(CCCN2c3ccccc3Sc3ccc(C(F)(F)F)cc32)CC1)OCCCCOc1no[n+]([O-])c1S(=O)(=O)c1ccccc1`: the IC50 in data set [1] amounted to 64.6 µM; in data set [9], 2.93 µM; in [2] it was 10.2 µM; in data set [4], 2.93 µM; in [7], 1.35 µM. The results for the “Ratio IC50” value in data set [5] and in [6] were 4 - 13 and 6 - 15, respectively. Besides, the survival at 24 h, 250 µM in data set [10] is 19.4%.
For `COCCN(CCCN1c2ccccc2Sc2ccc(C(F)(F)F)cc21)CCOC`, the IC50 is over 50 µM in [1], over 50 µM in data set [2], 29.9 µM in data set [4] and over 50 µM in data set [7].
For the molecule `CSc1ccc2c(c1)N(CCCN1CCN(C(=O)CCC(=O)OCC#CCOc3no[n+]([O-])c3S(=O)(=O)c3ccccc3)CC1)c1ccccc1S2`, the IC50 worked out at 2.63 µM in [1], 20.2 µM in data set [2], 3.97 µM in data set [4] and 4.32 µM in data set [7]. For the same molecule, the “Ratio IC50” value in [8] was found to be 6.
For the molecule `O=C1CC(c2ccc(O)cc2)Oc2cc(O)c(CN3CCN(CCCN4c5ccccc5Sc5ccc(C(F)(F)F)cc54)CC3)c(O)c21` (stereo not given), the IC50 is over 50 µM in [1], over 50 µM in data set [2], 25 µM in data set [4] and over 50 µM in data set [7].
In the case of `CSc1ccc2c(c1)N(CCCN1CCN(C(=O)CCC(=O)OCCOc3no[n+]([O-])c3S(=O)(=O)c3ccccc3)CC1)c1ccccc1S2`, the IC50 was 3.86 µM in data set [1]; 1.2 µM in data set [9]; 3.82 µM in [2]; 1.2 µM in data set [4]; 1.85 µM in data set [7]. The survival at 24 h, 250 µM in [10] came out at 32.3%.
Take `O=C(CCC(=O)N1CCN(CCCN2c3ccccc3Sc3ccc(C(F)(F)F)cc32)CC1)OCC#CCOc1no[n+]([O-])c1S(=O)(=O)c1ccccc1`: the IC50 in [1] amounted to 18 µM; in [2], 5.89 µM; in data set [4], 5.44 µM; in data set [7], 7.26 µM.
As for `CSc1ccc2c(c1)N(CCCN1CCN(C(=O)CCC(=O)NCCOc3no[n+]([O-])c3S(=O)(=O)c3ccccc3)CC1)c1ccccc1S2`, the IC50 was 2.68 µM in [1], 3.41 µM in [2], 9.34 µM in [4] and 12.2 µM in [7]. Also, the “Ratio IC50” value in [8] is recorded as 4 - 9; in data set [3], 4 - 15.
With `CSc1ccc2c(c1)N(CCCN(CCO)CCO)c1ccccc1S2`, the IC50 worked out at 27.2 µM in data set [1], 10.3 µM in data set [2], 24.6 µM in [4] and 36.7 µM in data set [7].
`O=C(CCC(=O)N1CCN(CCCN2c3ccccc3Sc3ccc(C(F)(F)F)cc32)CC1)OCCOc1no[n+]([O-])c1S(=O)(=O)c1ccccc1`: the IC50 in data set [1] was 1.51 µM; in data set [9] it was 2.2 µM; in data set [2], 7.09 µM; in data set [4], 2.2 µM; in [7], 1.36 µM. The survival at 24 h, 250 µM in data set [10] turned out to be 25.8%.
